Results as given in ChEMBL document CHEMBL4507329, “Data for DCP probe BTZO-1” (2021).

Tests used:
[1] = target: Serine/threonine-protein kinase MRCK alpha (Homo sapiens) (UniProt Q5VT25); conditions: Compound concentration 1000.0 nM
[2] = target: RAC-gamma serine/threonine-protein kinase (Homo sapiens) (UniProt Q9Y243); conditions: Compound concentration 1000.0 nM
[3] = target: Calcium/calmodulin-dependent protein kinase type 1D (Homo sapiens) (UniProt Q8IU85); conditions: Compound concentration 1000.0 nM
[4] = target: Kappa-type opioid receptor (Homo sapiens) (UniProt P41145); conditions: Compound concentration 10.0 uM
[5] = target: Tyrosine-protein kinase receptor Tie-1 (Homo sapiens) (UniProt P35590); conditions: Compound concentration 1000.0 nM
[6] = target: Tyrosine-protein kinase Mer (Homo sapiens) (UniProt Q12866); conditions: Compound concentration 1000.0 nM
[7] = target: Ribosomal protein S6 kinase alpha-5 (Homo sapiens) (UniProt O75582); conditions: Compound concentration 1000.0 nM
[8] = target: Serine/threonine-protein kinase/endoribonuclease IRE1 (Homo sapiens) (UniProt O75460); conditions: Compound concentration 1000.0 nM
[9] = test system: Hepatocyte growth factor receptor (Homo sapiens), P08581 [M1250T]; conditions: Compound concentration 1000.0 nM
[10] = target: Vascular endothelial growth factor receptor 1 (Homo sapiens) (UniProt P17948); conditions: Compound concentration 1000.0 nM
[11] = target: Casein kinase II subunit alpha' (Homo sapiens) (UniProt P19784); conditions: Compound concentration 1000.0 nM
[12] = target: Mitogen-activated protein kinase 3 (Homo sapiens) (UniProt P27361); conditions: Compound concentration 1000.0 nM
[13] = target: Cyclin-dependent kinase 3 (Homo sapiens) (UniProt Q00526); conditions: Compound concentration 1000.0 nM
[14] = test system: Tyrosine-protein kinase ABL1 (Homo sapiens), P00519 [F317I]; conditions: Compound concentration 1000.0 nM
[15] = target: Serine/threonine-protein kinase 38 (Homo sapiens) (UniProt Q15208); conditions: Compound concentration 1000.0 nM
[16] = target: Interleukin-1 receptor-associated kinase 1 (Homo sapiens) (UniProt P51617); conditions: Compound concentration 1000.0 nM
[17] = target: Cyclin-dependent kinase 17 (Homo sapiens) (UniProt Q00537); conditions: Compound concentration 1000.0 nM
[18] = target: Ephrin type-A receptor 1 (Homo sapiens) (UniProt P21709); conditions: Compound concentration 1000.0 nM
[19] = target: Serine/threonine-protein kinase DCLK1 (Homo sapiens) (UniProt O15075); conditions: Compound concentration 1000.0 nM
[20] = target: Dual specificity protein kinase CLK2 (Homo sapiens) (UniProt P49760); conditions: Compound concentration 1000.0 nM
[21] = target: Myosin light chain kinase family member 4 (Homo sapiens) (UniProt Q86YV6); conditions: Compound concentration 1000.0 nM
[22] = target: Serine/threonine-protein kinase MRCK gamma (Homo sapiens) (UniProt Q6DT37); conditions: Compound concentration 1000.0 nM
[23] = target: Phosphatidylinositol 4,5-bisphosphate 3-kinase catalytic subunit alpha isoform (Homo sapiens) (UniProt P42336); conditions: Compound concentration 1000.0 nM
[24] = target: Serine/threonine-protein kinase STK11 (Homo sapiens) (UniProt Q15831); conditions: Compound concentration 1000.0 nM
[25] = target: Ribosomal protein S6 kinase beta-1 (Homo sapiens) (UniProt P23443); conditions: Compound concentration 1000.0 nM
[26] = test system: Epidermal growth factor receptor (Homo sapiens), P00533 [L858R]; conditions: Compound concentration 1000.0 nM
[27] = target: Tyrosine-protein kinase Srms (Homo sapiens) (UniProt Q9H3Y6); conditions: Compound concentration 1000.0 nM
[28] = target: Inhibitor of nuclear factor kappa-B kinase subunit alpha (Homo sapiens) (UniProt O15111); conditions: Compound concentration 1000.0 nM
[29] = target: Myotonin-protein kinase (Homo sapiens) (UniProt Q09013); conditions: Compound concentration 1000.0 nM
[30] = target: Ribosomal protein S6 kinase alpha-1 (Homo sapiens) (UniProt Q15418); conditions: Compound concentration 1000.0 nM
[31] = test system: Phosphatidylinositol 4,5-bisphosphate 3-kinase catalytic subunit alpha isoform (Homo sapiens), P42336 [E542K]; conditions: Compound concentration 1000.0 nM
[32] = target: Cyclin-dependent kinase-like 3 (Homo sapiens) (UniProt Q8IVW4); conditions: Compound concentration 1000.0 nM
[33] = target: Calcium/calmodulin-dependent protein kinase kinase 1 (Homo sapiens) (UniProt Q8N5S9); conditions: Compound concentration 1000.0 nM
[34] = target: Eukaryotic translation initiation factor 2-alpha kinase 1 (Homo sapiens) (UniProt Q9BQI3); conditions: Compound concentration 1000.0 nM
[35] = test system: Receptor-type tyrosine-protein kinase FLT3 (Homo sapiens), P36888 [D835H]; conditions: Compound concentration 1000.0 nM
[36] = target: Ribosomal protein S6 kinase alpha-3 (Homo sapiens) (UniProt P51812); conditions: Compound concentration 1000.0 nM
[37] = target: Dual specificity tyrosine-phosphorylation-regulated kinase 1A (Homo sapiens) (UniProt Q13627); conditions: Compound concentration 1000.0 nM
[38] = target: Mitogen-activated protein kinase kinase kinase kinase 3 (Homo sapiens) (UniProt Q8IVH8); conditions: Compound concentration 1000.0 nM
[39] = target: Serine/threonine-protein kinase PAK 1 (Homo sapiens) (UniProt Q13153); conditions: Compound concentration 1000.0 nM
[40] = target: Serine/threonine-protein kinase LATS2 (Homo sapiens) (UniProt Q9NRM7); conditions: Compound concentration 1000.0 nM
[41] = target: Mitogen-activated protein kinase kinase kinase kinase 4 (Homo sapiens) (UniProt O95819); conditions: Compound concentration 1000.0 nM
[42] = target: Serine/threonine-protein kinase Nek3 (Homo sapiens) (UniProt P51956); conditions: Compound concentration 1000.0 nM
[43] = target: Serine/threonine-protein kinase PLK2 (Homo sapiens) (UniProt Q9NYY3); conditions: Compound concentration 1000.0 nM
[44] = target: Serine/threonine-protein kinase Chk1 (Homo sapiens) (UniProt O14757); conditions: Compound concentration 1000.0 nM
[45] = test system: Proto-oncogene tyrosine-protein kinase receptor Ret (Homo sapiens), P07949 [M918T]; conditions: Compound concentration 1000.0 nM

Sequence of Serine/threonine-protein kinase 38 (Homo sapiens) (Q15208 2-465 limits assumed): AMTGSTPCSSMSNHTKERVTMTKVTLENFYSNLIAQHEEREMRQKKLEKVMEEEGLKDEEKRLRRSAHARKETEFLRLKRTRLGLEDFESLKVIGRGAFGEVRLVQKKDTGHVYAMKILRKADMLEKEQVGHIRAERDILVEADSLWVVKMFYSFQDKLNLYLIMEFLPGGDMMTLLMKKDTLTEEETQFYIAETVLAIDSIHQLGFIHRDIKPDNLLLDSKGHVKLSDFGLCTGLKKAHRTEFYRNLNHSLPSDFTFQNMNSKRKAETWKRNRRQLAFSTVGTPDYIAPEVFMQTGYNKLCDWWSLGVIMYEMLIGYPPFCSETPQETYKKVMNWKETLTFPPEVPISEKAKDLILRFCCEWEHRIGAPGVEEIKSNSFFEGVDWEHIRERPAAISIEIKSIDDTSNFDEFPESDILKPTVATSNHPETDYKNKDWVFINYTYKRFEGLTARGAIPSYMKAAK
Sequence of Myotonin-protein kinase (Homo sapiens) (Q09013 whole entry): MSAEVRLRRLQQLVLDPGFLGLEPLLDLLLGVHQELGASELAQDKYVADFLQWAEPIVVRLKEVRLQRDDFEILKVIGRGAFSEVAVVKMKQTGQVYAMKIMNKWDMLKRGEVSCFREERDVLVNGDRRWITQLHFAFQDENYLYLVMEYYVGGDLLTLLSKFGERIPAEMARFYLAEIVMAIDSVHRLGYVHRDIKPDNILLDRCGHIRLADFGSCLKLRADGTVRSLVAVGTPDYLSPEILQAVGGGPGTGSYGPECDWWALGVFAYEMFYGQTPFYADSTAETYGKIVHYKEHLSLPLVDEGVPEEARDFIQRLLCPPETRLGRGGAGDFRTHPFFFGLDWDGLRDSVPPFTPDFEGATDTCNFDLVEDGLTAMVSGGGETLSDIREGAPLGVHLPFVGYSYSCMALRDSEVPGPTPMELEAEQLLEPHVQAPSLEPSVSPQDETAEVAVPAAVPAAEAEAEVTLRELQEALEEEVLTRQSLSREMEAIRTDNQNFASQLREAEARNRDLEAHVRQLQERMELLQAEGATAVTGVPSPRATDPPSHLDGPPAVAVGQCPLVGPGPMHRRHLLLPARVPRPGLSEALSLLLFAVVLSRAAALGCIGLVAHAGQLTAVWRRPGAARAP
Sequence of Mitogen-activated protein kinase kinase kinase kinase 4 (Homo sapiens) (O95819 2-1239 limits assumed): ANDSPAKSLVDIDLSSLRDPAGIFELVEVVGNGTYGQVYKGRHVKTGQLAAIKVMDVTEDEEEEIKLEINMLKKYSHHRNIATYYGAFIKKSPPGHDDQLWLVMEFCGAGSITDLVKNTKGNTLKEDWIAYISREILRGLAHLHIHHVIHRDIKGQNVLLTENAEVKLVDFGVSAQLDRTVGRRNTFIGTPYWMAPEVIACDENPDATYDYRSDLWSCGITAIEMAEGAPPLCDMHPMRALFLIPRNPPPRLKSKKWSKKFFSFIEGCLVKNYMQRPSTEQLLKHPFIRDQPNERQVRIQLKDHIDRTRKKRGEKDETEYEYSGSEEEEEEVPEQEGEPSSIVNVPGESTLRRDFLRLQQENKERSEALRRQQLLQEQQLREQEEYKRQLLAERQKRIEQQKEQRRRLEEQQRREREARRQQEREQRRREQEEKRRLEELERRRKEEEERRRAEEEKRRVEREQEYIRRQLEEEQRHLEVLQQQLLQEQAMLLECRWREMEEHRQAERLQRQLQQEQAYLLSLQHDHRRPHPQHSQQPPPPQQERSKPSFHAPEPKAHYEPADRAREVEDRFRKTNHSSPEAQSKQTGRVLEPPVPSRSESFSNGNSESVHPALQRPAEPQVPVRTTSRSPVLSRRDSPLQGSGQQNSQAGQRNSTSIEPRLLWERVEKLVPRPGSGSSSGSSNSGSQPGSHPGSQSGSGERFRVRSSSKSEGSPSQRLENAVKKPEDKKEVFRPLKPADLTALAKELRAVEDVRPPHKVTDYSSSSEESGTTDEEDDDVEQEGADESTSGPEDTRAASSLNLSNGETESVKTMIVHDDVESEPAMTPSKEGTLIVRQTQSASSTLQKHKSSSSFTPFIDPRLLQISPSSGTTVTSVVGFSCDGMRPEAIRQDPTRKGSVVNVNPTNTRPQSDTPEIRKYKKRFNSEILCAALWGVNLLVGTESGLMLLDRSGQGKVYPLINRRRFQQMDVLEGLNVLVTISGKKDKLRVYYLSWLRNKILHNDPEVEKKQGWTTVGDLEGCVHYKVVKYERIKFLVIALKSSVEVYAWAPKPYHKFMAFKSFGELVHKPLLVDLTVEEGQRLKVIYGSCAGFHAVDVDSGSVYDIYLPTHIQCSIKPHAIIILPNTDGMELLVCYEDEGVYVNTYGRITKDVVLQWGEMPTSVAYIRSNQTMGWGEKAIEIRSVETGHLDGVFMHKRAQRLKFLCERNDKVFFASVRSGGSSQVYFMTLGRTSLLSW
Sequence of Interleukin-1 receptor-associated kinase 1 (Homo sapiens) (P51617 whole entry, looked up): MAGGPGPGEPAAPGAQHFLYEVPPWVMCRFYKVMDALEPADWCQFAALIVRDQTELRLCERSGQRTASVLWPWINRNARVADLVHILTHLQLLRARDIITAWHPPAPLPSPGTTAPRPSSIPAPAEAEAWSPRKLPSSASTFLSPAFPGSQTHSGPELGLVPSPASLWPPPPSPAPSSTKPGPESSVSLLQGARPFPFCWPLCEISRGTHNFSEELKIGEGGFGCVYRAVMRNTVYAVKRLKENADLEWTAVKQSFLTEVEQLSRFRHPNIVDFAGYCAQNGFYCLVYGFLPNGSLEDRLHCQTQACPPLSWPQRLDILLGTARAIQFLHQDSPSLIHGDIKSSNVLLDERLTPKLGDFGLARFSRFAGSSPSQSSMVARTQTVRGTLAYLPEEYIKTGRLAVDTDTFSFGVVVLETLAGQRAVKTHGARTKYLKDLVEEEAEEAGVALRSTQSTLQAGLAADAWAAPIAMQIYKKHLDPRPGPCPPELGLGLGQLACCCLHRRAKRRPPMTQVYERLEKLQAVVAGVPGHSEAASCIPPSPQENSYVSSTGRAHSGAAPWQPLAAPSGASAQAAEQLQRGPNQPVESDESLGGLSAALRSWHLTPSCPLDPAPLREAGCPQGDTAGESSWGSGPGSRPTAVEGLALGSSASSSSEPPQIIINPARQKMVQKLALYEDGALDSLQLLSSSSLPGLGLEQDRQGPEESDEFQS
Sequence of Ribosomal protein S6 kinase alpha-5 (Homo sapiens) (O75582 whole entry, looked up): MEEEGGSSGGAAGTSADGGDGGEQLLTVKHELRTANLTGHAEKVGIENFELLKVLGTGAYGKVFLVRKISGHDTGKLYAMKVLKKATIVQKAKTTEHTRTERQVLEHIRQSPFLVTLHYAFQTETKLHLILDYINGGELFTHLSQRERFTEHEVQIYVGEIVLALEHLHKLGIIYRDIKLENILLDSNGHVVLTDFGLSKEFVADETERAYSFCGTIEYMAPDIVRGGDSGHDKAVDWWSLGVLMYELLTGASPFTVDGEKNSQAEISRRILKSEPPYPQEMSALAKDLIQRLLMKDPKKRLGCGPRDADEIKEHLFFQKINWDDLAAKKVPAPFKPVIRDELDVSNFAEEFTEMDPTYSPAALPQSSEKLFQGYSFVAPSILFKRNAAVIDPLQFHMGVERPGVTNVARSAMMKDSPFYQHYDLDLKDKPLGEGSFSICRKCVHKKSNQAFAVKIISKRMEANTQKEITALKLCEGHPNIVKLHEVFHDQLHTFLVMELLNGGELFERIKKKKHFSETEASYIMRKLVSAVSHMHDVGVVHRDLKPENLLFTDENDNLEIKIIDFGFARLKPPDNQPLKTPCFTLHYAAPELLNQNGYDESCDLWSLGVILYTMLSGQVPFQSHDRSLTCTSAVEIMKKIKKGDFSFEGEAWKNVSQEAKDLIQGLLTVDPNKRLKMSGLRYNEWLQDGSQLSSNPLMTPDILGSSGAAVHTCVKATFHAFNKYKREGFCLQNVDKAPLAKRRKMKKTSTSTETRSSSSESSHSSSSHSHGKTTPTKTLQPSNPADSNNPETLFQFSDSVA
Sequence of Tyrosine-protein kinase receptor Tie-1 (Homo sapiens) (P35590 whole entry): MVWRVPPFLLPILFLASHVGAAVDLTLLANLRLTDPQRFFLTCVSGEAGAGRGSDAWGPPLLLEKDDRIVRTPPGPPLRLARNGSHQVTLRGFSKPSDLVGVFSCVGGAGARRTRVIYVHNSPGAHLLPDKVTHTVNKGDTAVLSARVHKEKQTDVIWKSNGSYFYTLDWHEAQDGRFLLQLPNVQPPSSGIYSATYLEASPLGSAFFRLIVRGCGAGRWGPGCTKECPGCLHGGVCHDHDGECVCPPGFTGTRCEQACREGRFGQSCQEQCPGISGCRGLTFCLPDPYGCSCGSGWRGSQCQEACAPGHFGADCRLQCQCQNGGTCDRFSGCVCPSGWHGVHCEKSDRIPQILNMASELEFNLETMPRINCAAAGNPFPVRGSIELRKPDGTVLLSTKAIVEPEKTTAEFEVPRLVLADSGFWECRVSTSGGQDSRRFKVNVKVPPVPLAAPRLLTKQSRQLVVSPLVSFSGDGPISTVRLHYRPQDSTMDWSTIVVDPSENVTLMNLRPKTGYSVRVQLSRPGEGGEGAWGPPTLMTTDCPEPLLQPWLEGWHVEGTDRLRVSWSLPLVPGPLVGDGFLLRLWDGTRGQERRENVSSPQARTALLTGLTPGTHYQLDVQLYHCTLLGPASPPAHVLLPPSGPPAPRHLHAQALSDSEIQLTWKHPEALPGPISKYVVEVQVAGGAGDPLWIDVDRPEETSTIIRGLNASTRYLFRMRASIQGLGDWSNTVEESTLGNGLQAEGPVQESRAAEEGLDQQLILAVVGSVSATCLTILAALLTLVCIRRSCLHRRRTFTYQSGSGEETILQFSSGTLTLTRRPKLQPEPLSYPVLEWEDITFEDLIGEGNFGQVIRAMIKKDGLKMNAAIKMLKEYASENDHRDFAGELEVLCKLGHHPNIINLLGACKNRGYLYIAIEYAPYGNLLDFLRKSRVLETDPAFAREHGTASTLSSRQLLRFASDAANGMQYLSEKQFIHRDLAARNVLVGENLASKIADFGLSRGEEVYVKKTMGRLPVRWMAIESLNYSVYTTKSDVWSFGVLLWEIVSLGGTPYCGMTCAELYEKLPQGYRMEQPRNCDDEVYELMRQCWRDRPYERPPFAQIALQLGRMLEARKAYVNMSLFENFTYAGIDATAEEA

O=c1nc(-c2ccccn2)sc2ccccc12 [BTZO-1]
inactive: residual activity [1] 91% | residual activity [2] 100% | residual activity [3] 90% | inhibition [4] 1.65% | residual activity [5] 91% | residual activity [6] 82% | residual activity [7] 88% | residual activity [8] 100% | residual activity [9] 98% | residual activity [10] 100% | residual activity [11] 92% | residual activity [12] 80% | residual activity [13] 99% | residual activity [14] 100% | residual activity [15] 76% | residual activity [16] 100% | residual activity [17] 100% | residual activity [18] 100% | residual activity [19] 90% | residual activity [20] 80% | residual activity [21] 87% | residual activity [22] 80% | residual activity [23] 100% | residual activity [24] 79% | residual activity [25] 100% | residual activity [26] 81% | residual activity [27] 87% | residual activity [28] 100% | residual activity [29] 100% | residual activity [30] 100% | residual activity [31] 89% | residual activity [32] 88% | residual activity [33] 96% | residual activity [34] 97% | residual activity [35] 74% | residual activity [36] 71% | residual activity [37] 91% | residual activity [38] 90% | residual activity [39] 94% | residual activity [40] 79% | residual activity [41] 100% | residual activity [42] 72% | residual activity [43] 95% | residual activity [44] 85% | residual activity [45] 81%

O=C1NC(c2ccccn2)Sc2ccccc21 (stereo not given) [BTZO-4]
inactive: residual activity [1] 84% | residual activity [2] 100% | residual activity [3] 82% | inhibition [4] 4.68% | residual activity [5] 65% | residual activity [6] 75% | residual activity [7] 87% | residual activity [8] 100% | residual activity [9] 72% | residual activity [10] 100% | residual activity [11] 100% | residual activity [12] 74% | residual activity [13] 100% | residual activity [14] 90% | residual activity [15] 76% | residual activity [16] 96% | residual activity [17] 100% | residual activity [18] 100% | residual activity [19] 77% | residual activity [20] 95% | residual activity [21] 90% | residual activity [22] 80% | residual activity [23] 91% | residual activity [24] 87% | residual activity [25] 75% | residual activity [26] 86% | residual activity [27] 84% | residual activity [28] 100% | residual activity [29] 100% | residual activity [30] 100% | residual activity [31] 100% | residual activity [32] 88% | residual activity [33] 88% | residual activity [34] 79% | residual activity [35] 65% | residual activity [36] 72% | residual activity [37] 100% | residual activity [38] 100% | residual activity [39] 96% | residual activity [40] 70% | residual activity [41] 100% | residual activity [42] 80% | residual activity [43] 97% | residual activity [44] 88% | residual activity [45] 64%
